Measurements from ChEMBL document CHEMBL4251622, “Design, synthesis, and biological evaluation of polo-like kinase 1/eukaryotic elongation factor 2 kinase (PLK1/EEF2K) dual inhibitors for regulating breast cancer cells apoptosis and autophagy” (Eur J Med Chem, 2018).
Calls of active or inactive are those of the source. No cut-off for these calls is given here.

Experiments:
[1] = target: Aurora kinase B (Homo sapiens) (UniProt Q96GD4); experiment: Inhibition of wild-type human partial length AURKB (D25 to A303 residues) expressed in mammalian expression system assessed as residual activity at 1 uM by Kinomescan method relative to control
Aurora kinase B (Homo sapiens), sequence (Q96GD4 whole entry, the tested form may be a part): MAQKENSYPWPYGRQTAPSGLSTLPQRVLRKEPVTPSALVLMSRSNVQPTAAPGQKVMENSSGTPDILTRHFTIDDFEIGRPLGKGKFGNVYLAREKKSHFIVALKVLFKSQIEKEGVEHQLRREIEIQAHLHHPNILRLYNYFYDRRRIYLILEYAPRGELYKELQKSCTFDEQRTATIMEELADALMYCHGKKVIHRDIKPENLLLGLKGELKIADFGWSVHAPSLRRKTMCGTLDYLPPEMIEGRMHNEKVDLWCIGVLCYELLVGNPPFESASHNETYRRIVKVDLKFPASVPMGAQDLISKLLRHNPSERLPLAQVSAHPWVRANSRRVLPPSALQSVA

[2] = target: Serine/threonine-protein kinase STK11 (Homo sapiens) (UniProt Q15831); experiment: Inhibition of wild-type human full length LKB1 (M1 to Q433 residues) expressed in bacterial expression system assessed as residual activity at 1 uM by Kinomescan method relative to control
Serine/threonine-protein kinase STK11 (Homo sapiens), sequence (Q15831 whole entry, the tested form may be a part): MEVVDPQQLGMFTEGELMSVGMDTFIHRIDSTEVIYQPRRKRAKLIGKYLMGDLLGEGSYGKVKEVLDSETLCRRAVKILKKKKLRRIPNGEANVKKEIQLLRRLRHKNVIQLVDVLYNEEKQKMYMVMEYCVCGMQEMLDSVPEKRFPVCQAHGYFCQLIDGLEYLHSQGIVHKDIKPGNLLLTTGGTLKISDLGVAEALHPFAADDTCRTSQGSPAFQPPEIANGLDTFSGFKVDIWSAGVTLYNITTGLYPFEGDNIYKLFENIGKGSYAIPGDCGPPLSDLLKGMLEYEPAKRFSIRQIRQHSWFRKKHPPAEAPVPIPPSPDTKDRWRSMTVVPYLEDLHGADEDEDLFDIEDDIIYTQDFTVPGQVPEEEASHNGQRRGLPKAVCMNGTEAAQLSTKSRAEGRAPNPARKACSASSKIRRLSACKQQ

[3] = target: cAMP-dependent protein kinase catalytic subunit alpha (Homo sapiens) (UniProt P17612); experiment: Inhibition of wild-type human partial length PKAC-alpha (G10 to F351 residues) expressed in bacterial expression system assessed as residual activity at 1 uM by Kinomescan method relative to control
[4] = target: Activin receptor type-1B (Homo sapiens) (UniProt P36896); experiment: Inhibition of wild-type human ACVR1B (S187 to I505 residues) expressed in bacterial expression system assessed as residual activity at 1 uM by Kinomescan method relative to control
[5] = target: Tyrosine-protein kinase ABL1 (Homo sapiens) (UniProt P00519); experiment: Inhibition of wild-type human phosphorylated ABL1 (S229 to K512 residues) expressed in mammalian expression system assessed as residual activity at 1 uM by Kinomescan method relative to control
Tyrosine-protein kinase ABL1 (Homo sapiens), sequence (P00519 whole entry, the tested form may be a part): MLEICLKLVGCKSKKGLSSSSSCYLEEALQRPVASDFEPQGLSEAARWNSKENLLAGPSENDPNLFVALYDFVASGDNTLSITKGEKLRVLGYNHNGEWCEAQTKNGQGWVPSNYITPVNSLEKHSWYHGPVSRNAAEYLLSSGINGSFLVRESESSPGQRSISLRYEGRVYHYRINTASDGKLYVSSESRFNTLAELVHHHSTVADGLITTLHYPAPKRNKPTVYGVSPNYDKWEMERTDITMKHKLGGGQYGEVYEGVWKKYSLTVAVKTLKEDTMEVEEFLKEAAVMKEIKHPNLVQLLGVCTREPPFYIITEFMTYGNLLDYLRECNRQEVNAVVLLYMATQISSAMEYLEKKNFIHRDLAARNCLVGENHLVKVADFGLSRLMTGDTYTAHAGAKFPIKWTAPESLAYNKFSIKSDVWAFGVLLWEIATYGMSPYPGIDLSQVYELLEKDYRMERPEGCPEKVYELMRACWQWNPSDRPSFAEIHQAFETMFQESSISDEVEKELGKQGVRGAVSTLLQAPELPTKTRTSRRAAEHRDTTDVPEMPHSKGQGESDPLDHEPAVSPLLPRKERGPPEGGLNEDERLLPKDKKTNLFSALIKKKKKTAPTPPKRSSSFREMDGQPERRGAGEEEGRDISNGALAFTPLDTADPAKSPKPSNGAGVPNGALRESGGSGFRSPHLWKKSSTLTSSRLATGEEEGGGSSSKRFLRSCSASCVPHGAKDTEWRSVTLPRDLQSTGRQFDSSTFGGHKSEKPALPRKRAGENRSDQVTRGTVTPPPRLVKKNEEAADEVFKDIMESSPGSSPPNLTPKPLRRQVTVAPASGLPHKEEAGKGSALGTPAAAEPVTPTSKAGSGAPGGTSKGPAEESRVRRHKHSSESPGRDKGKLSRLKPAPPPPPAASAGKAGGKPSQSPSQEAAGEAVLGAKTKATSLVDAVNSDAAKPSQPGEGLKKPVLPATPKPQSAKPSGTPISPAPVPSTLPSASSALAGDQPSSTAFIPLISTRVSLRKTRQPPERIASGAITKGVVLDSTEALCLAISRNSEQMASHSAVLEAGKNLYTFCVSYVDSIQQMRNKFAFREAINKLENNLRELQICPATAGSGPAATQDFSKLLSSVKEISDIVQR

[6] = test system: ZR-75-1; experiment: Cytotoxicity against human ZR-75-1 cells after 24 hrs by MTT assay; format: functional, cell-based
[7] = test system: BT-483; experiment: Induction of apoptosis in human BT-483 cells assessed as late apoptotic cells at 10 uM by Annexin V-FITC/propidium iodide staining based flow cytometry (reference value: 0.36%); format: functional
[8] = target: MAP kinase-interacting serine/threonine-protein kinase 2 (Homo sapiens) (UniProt Q9HBH9); experiment: Inhibition of wild-type human partial length MKNK2 (G63 to S388 residues) expressed in mammalian expression system assessed as residual activity at 1 uM by Kinomescan method relative to control
[9] = target: T1, Serine/threonine-protein kinase PLK1 (Homo sapiens, UniProt P53350); experiment: Inhibition of wild-type human partial length PLK1 (A33 to F325 residues) expressed in mammalian expression system assessed as residual activity at 1 uM by Kinomescan method relative to control
T1 sequence (P53350 whole entry, the tested form may be a part): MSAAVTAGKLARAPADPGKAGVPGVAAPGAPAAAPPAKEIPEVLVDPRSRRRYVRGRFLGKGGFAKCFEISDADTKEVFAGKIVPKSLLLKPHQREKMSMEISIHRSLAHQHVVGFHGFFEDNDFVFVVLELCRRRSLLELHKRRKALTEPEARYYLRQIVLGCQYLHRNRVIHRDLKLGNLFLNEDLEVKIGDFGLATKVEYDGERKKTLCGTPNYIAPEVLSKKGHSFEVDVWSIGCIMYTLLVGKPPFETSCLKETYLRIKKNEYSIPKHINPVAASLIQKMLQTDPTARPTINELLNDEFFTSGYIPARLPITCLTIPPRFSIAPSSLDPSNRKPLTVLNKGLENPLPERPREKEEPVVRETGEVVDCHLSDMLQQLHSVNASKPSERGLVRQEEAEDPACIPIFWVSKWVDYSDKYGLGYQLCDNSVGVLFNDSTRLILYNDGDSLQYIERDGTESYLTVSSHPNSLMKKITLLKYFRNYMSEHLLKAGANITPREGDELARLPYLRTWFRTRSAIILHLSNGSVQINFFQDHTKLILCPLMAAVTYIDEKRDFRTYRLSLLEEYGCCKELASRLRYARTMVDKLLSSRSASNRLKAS

[10] = target: Serine/threonine-protein kinase Chk1 (Homo sapiens) (UniProt O14757); experiment: Inhibition of wild-type human partial length CHEK1 (M1 to G289 residues) expressed in bacterial expression system assessed as residual activity at 1 uM by Kinomescan method relative to control
[11] = target: Proto-oncogene tyrosine-protein kinase Src (Homo sapiens) (UniProt P12931); experiment: Inhibition of wild-type human partial length SRC (L240 to L536 residues) expressed in bacterial expression system assessed as residual activity at 1 uM by Kinomescan method relative to control
[12] = target: T2, Eukaryotic elongation factor 2 kinase (Homo sapiens) (UniProt O00418); experiment: Inhibition of EEF2K-meidated EEF2 phosphorylation in human BT-483 cells at 5 to 10 uM by Western blot analysis; format: cell-based
T2 sequence (whole entry): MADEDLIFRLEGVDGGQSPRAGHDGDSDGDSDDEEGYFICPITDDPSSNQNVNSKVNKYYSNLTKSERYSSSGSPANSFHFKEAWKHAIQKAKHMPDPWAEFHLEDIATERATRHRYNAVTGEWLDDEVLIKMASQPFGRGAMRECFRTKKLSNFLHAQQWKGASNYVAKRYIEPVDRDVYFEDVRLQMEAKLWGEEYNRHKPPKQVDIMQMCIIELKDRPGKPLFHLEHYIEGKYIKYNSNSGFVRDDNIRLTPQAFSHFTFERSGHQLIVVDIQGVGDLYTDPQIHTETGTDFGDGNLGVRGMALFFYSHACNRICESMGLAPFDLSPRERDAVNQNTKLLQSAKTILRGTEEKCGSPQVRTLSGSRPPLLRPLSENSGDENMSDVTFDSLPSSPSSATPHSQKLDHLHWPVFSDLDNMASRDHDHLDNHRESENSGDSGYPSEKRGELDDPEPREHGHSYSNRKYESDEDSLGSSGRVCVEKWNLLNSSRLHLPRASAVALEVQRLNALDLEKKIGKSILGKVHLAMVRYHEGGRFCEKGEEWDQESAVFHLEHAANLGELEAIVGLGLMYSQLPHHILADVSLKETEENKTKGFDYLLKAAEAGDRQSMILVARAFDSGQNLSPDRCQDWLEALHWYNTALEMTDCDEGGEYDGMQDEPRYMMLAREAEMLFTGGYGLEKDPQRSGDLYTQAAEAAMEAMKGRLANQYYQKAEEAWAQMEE

[13] = test system: MCF7; experiment: Cytotoxicity against human MCF7 cells after 24 hrs by MTT assay; format: functional, cell-based; settings: MCF7, 24 h
[14] = target: T2, Eukaryotic elongation factor 2 kinase (Homo sapiens); experiment: Inhibition of EEF2K (unknown origin) assessed as residual activity at 1 uM by Kinomescan assay relative to control
[15] = target: Receptor-type tyrosine-protein kinase FLT3 (Homo sapiens) (UniProt P36888); experiment: Inhibition of wild-type human partial length FLT3 (V592 to Y969 residues) expressed in bacterial expression system assessed as residual activity at 1 uM by Kinomescan method relative to control
[16] = target: Cyclin-dependent kinase 19 (Homo sapiens) (UniProt Q9BWU1); experiment: Inhibition of wild-type human partial length CDK11 (M1 to N360 residues) expressed in bacterial expression system assessed as residual activity at 1 uM by Kinomescan method relative to control
Cyclin-dependent kinase 19 (Homo sapiens), sequence (Q9BWU1 whole entry, the tested form may be a part): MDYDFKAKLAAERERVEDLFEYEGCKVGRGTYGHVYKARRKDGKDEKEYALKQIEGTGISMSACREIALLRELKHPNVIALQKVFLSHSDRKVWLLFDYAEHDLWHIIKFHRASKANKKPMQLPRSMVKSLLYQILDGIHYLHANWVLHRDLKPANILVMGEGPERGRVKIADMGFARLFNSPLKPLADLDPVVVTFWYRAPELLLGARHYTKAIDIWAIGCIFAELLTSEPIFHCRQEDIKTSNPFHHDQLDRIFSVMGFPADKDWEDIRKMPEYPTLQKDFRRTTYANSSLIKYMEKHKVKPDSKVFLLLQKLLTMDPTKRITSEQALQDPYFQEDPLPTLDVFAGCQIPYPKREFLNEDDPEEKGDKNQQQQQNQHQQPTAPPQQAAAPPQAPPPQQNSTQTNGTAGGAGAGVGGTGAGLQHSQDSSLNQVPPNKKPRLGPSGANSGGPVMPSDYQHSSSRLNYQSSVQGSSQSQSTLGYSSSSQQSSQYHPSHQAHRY

[17] = test system: BT-483; experiment: Upregulation of cleaved caspase-3 protein expression in human BT-483 cells at 5 to 10 uM by Western blot analysis; format: functional, cell-based
[18] = target: T1, Serine/threonine-protein kinase PLK1; experiment: Inhibition of full length human PLK1 using casein as substrate after 40 mins in presence of [gamma-33P]-ATP by radiometric assay
[19] = target: Mitogen-activated protein kinase 3 (Homo sapiens) (UniProt P27361); experiment: Inhibition of wild-type human full length ERK1 (M1 to P379 residues) expressed in bacterial expression system assessed as residual activity at 1 uM by Kinomescan method relative to control
Mitogen-activated protein kinase 3 (Homo sapiens), sequence (P27361 whole entry, the tested form may be a part): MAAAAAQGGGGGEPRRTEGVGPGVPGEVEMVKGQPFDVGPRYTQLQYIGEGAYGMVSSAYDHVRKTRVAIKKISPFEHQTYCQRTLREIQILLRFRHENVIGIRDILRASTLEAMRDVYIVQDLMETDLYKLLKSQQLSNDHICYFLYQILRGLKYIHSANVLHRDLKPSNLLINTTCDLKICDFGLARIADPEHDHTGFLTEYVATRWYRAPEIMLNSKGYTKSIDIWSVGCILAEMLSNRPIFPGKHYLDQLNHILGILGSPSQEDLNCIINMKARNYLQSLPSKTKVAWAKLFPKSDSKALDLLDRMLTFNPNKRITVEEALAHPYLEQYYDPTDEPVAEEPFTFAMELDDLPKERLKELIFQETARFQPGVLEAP

[20] = target: Tyrosine-protein kinase ZAP-70 (Homo sapiens) (UniProt P43403); experiment: Inhibition of wild-type human partial length ZAP70 (D20 to G299 residues) expressed in mammalian expression system assessed as residual activity at 1 uM by Kinomescan method relative to control
Tyrosine-protein kinase ZAP-70 (Homo sapiens), sequence (P43403 whole entry, the tested form may be a part): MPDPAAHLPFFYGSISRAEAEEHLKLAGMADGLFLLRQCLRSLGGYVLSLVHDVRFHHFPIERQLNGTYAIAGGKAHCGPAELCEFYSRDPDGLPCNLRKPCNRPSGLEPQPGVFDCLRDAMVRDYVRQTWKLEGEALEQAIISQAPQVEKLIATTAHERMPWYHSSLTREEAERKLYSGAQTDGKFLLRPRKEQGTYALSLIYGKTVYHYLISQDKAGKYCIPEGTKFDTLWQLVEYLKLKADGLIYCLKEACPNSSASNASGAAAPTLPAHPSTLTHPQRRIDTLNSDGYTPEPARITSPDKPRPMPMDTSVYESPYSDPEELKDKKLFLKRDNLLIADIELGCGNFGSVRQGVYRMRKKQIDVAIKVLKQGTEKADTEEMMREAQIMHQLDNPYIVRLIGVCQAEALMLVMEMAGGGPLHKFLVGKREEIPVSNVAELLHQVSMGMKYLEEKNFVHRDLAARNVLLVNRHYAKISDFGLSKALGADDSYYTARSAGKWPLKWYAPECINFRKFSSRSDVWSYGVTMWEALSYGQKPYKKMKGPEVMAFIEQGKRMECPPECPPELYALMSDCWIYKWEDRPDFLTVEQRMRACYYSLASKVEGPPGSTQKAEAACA

[21] = target: Testis-specific serine/threonine-protein kinase 1 (Homo sapiens) (UniProt Q9BXA7); experiment: Inhibition of wild-type human full length TSSK1B (M1 to Q367 residues) expressed in bacterial expression system assessed as residual activity at 1 uM by Kinomescan method relative to control
Testis-specific serine/threonine-protein kinase 1 (Homo sapiens), sequence (Q9BXA7 whole entry, the tested form may be a part): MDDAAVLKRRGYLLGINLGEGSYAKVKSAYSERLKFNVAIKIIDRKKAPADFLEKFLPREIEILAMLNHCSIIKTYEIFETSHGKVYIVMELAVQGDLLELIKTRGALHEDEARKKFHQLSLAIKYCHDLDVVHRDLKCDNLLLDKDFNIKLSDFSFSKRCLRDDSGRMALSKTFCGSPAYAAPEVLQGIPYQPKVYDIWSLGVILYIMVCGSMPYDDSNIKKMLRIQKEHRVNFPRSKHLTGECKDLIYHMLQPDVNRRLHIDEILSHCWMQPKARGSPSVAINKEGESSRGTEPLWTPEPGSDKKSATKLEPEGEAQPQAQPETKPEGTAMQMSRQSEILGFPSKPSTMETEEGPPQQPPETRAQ

[22] = test system: BT-483; experiment: Induction of apoptosis in human BT-483 cells assessed as necrotic cells at 10 uM by Annexin V-FITC/propidium iodide staining based flow cytometry (reference value: 0.18%); format: functional
[23] = target: Casein kinase I isoform delta (Homo sapiens) (UniProt P48730); experiment: Inhibition of wild-type human full length CSNK1D (M1 to K409 residues) expressed in bacterial expression system assessed as residual activity at 1 uM by Kinomescan method relative to control
Casein kinase I isoform delta (Homo sapiens), sequence (P48730 whole entry, looked up, the tested form may be a part, canonical isoform): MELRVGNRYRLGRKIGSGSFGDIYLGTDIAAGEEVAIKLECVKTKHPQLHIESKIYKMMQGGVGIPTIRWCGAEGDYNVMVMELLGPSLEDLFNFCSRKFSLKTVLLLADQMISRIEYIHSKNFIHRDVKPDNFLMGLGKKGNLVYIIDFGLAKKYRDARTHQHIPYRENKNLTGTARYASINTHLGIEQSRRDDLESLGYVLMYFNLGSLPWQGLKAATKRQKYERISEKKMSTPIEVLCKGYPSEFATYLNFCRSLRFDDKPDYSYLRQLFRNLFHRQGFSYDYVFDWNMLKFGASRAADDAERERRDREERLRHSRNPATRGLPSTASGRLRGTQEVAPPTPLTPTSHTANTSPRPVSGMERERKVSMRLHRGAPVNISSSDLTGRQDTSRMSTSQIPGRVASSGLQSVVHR

SMILES: CCNc1cc(-c2ccc(NC(=O)Nc3cccc(Cl)c3)cc2C(F)(F)F)ccn1
- Activity [1]: 95%
- Activity [2]: 75%
- Activity [3]: 79%
- Activity [4]: 85%
- Activity [5]: 83%
- Activity [6]: Active
- Activity [7]: 12%
- Activity [8]: 73%
- Activity [9]: 7%
- Activity [10]: 81%
- Activity [11]: 93%
- inhibition [12]: Active
- IC50 [13]: 1240 nM
- Activity [14]: 11%
- Activity [15]: 100%
- Activity [16]: 89%
- Activity [17]: Active
- IC50 [18]: 85 nM
- Activity [19]: 67%
- Activity [20]: 71%
- Activity [21]: 64%
- Activity [22]: 0.48%
- Activity [23]: 86%
